The text below walks through data of patent US20050250836A1, “Inhibitors of checkpoint kinases (Wee1 and Chk1)” (Pfizer Inc, priority 2004, published 2005).

SMILES strings stand for the structures.

By melting point is commonly meant the temperature of the solid-liquid transition. In turn, `Cl.NCCCn1cc(Br)c2c3c(c(-c4ccccc4Cl)cc21)C(=O)NC3=O` had a melting point of 310 to 313 °C.

Regarding `COc1ccccc1-c1cc2c(ccn2C)c2c1C(=O)NC2=O` [Example 27, 4-(2-Methoxyphenyl)-6-methyl-6H-2,6-diaza-as-indacene-1,3-dione], the melting point fell in the range of 243 to 245 °C.

For the compound `COc1ccccc1-c1cc2c(c(Br)cn2C)c2c1C(=O)NC2=O` [Example 28, 8-Bromo-4-(2-methoxyphenyl)-6-methyl-6H-2,6-diaza-as-indacene-1,3-dione], the melting point lay within 216 to 220 °C.

`COc1ccccc1-c1cc2c(c(Cl)cn2C)c2c1C(=O)NC2=O` [Example 30, 8-Chloro-4-(2-methoxyphenyl)-6-methyl-6H-2,6-diaza-as-indacene-1,3-dione]: the melting point lay within 267 to 271 °C.

For `CSc1ccccc1-c1cc2c(c(Br)cn2C)c2c1C(=O)NC2=O` [Example 31, 8-Bromo-6-methyl-4-(2-methylsulfanylphenyl)-6H-2,6-diaza-as-indacene-1,3-dione], the melting point was in the range of 240 to 243 °C.

As to `Cn1cc(I)c2c3c(c(-c4ccccc4Cl)cc21)C(=O)NC3=O` [Example 32, 4-(2-Chlorophenyl)-8-iodo-6-methyl-6H-2,6-diaza-as-indacene-1,3-dione], the melting point is 150 to 154 °C (dec.).

As to `COc1cccc(Cl)c1-c1cc2c(ccn2C)c2c1C(=O)NC2=O` [Example 33, 4-(2-Chloro-6-methoxyphenyl)-6-methyl-6H-2,6-diaza-as-indacene-1,3-dione], the melting point lay in the range of 268 to 272 °C.

For `COc1cccc(Cl)c1-c1cc2c(c(Br)cn2C)c2c1C(=O)NC2=O` [Example 34, 8-Bromo-4-(2-chloro-6-methoxyphenyl)-6-methyl-6H-2,6-diaza-as-indacene-1,3-dione], the melting point lay in the range of 238 to 242 °C.

`CCOCCOCCn1ccc2c3c(c(-c4ccccc4Cl)cc21)C(=O)NC3=O` [Example 35, 4-(2-Chlorophenyl)-6-[2-(2-ethoxyethoxy)ethyl]-6H-2,6-diaza-as-indacene-1,3-dione] came in with a melting point of 173 °C.

In turn, `CCOCCOCCn1cc(Br)c2c3c(c(-c4ccccc4Cl)cc21)C(=O)NC3=O` [Example 36, 8-Bromo-4-(2-chlorophenyl)-6-[2-(2-ethoxyethoxy)ethyl]-6H-2,6-diaza-as-indacene-1,3-dione] yielded a melting point of 108 to 110 °C.

In turn, `O=C1NC(=O)c2c1c(-c1ccccc1Cl)cc1c2ccn1CCCO` [Example 42, 4-(2-Chlorophenyl)-6-(3-hydroxypropyl)-6H-2,6-diaza-as-indacene-1,3-dione] came in with a melting point of 225 to 227 °C.

Consider `COCCCn1ccc2c3c(c(-c4ccccc4Cl)cc21)C(=O)NC3=O` [Example 43, 4-(2-Chlorophenyl)-6-(3-methoxypropyl)-6H-2,6-diaza-as-indacene-1,3-dione], for which the melting point fell in the range of 171 to 172 °C.

Take `COCCCn1cc(Br)c2c3c(c(-c4ccccc4Cl)cc21)C(=O)NC3=O` [Example 44, 8-Bromo-4-(2-chlorophenyl)-6-(3-methoxypropyl)-6H-2,6-diaza-as-indacene-1,3-dione]: the melting point is 149 to 151 °C.

The compound `CCOC(=O)c1cc2c3c(c(-c4ccccc4Cl)cc2n1CCCOC)C(=O)NC3=O` [Example 46, 4-(2-Chlorophenyl)-6-(3-methoxypropyl)-1,3-dioxo-1,2,3,6-tetrahydro-2,6-diaza-as-indacene-7-carboxylic acid ethyl ester] returned a melting point of 235 to 237 °C.

For the compound `COCCCn1c(C(=O)O)cc2c3c(c(-c4ccccc4Cl)cc21)C(=O)NC3=O` [Example 47, 4-(2-Chlorophenyl)-6-(3-methoxypropyl)-1,3-dioxo-1,2,3,6-tetrahydro-2,6-diaza-as-indacene-7-carboxylic acid], the melting point was 272 to 274 °C.

The compound `CCOC(=O)c1cc2c3c(c(-c4ccccc4Cl)cc2n1CCCO)C(=O)NC3=O` [Example 48 (ii), 4-(2-Chlorophenyl)-6-(3-hydroxypropyl)-1,3-dioxo-1,2,3,6-tetrahydro-2,6-diaza-as-indacene-7-carboxylic acid ethyl ester] had a melting point of 249 to 251 °C.

`O=C1NC(=O)c2c1c(-c1ccccc1Cl)cc1c2cc(C(=O)O)n1CCCBr` [Example 49, 6-(3-Bromopropyl)-4-(2-chlorophenyl)-1,3-dioxo-1,2,3,6-tetrahydro-2,6-diaza-as-indacene-7-carboxylic acid] displayed a melting point of 294 to 295 °C.

Consider `O=C1NC(=O)c2c1c(-c1ccccc1Cl)cc1c2cc(CO)n1CCCBr` [Example 50, 6-(3-Bromopropyl)-4-(2-chlorophenyl)-7-hydroxymethyl-6H-2,6-diaza-as-indacene-1,3-dione], for which the melting point was 218 to 220 °C.

`COCCCn1c(C(N)=O)cc2c3c(c(-c4ccccc4Cl)cc21)C(=O)NC3=O` [Example 51, 4-(2-Chlorophenyl)-6-(3-methoxypropyl)-1,3-dioxo-1,2,3,6-tetrahydro-2,6-diaza-as-indacene-7-carboxylic acid amide] yielded a melting point of 260 to 261 °C.

Regarding `CCOCCOCCn1c(C=O)cc2c3c(c(-c4ccccc4Cl)cc21)C(=O)NC3=O` [Example 55, 4-(2-Chlorophenyl)-6-[2-(2-ethoxyethoxy)ethyl]-1,3-dioxo-1,2,3,6-tetrahydro-2,6-diaza-as-indacene-7-carbaldehyde], the melting point was 162 to 165 °C.

In turn, `CCOCCOCCn1c(C=O)c(Br)c2c3c(c(-c4ccccc4Cl)cc21)C(=O)NC3=O` [Example 56, 8-Bromo-4-(2-chlorophenyl)-6-[2-(2-ethoxyethoxy)ethyl]-1,3-dioxo-1,2,3,6-tetrahydro-2,6-diaza-as-indacene-7-carbaldehyde] showed a melting point of 203 to 205 °C.

Turning to `COCCCn1c(C=O)cc2c3c(c(-c4ccccc4Cl)cc21)C(=O)NC3=O` [Example 58, 4-(2-Chlorophenyl)-6-(3-methoxypropyl)-1,3-dioxo-1,2,3,6-tetrahydro-2,6-diaza-as-indacene-7-carbaldehyde], the melting point lay in the range of 155 to 156 °C.

Compound `COCCCn1c(CO)cc2c3c(c(-c4ccccc4Cl)cc21)C(=O)NC3=O` [Example 59, 4-(2-Chlorophenyl)-7-hydroxymethyl-6-(3-methoxypropyl)-6H-2,6-diaza-as-indacene-1,3-dione] yielded a melting point of 187 to 189 °C.

For `COCCCn1c(CO)c(Br)c2c3c(c(-c4ccccc4Cl)cc21)C(=O)NC3=O` [Example 60, 8-Bromo-4-(2-chlorophenyl)-7-hydroxymethyl-6-(3-methoxypropyl)-6H-2,6-diaza-as-indacene-1,3-dione], the melting point fell in the range of 178 to 180 °C.

For the compound `COCCCn1c(C=O)c(Br)c2c3c(c(-c4ccccc4Cl)cc21)C(=O)NC3=O` [Example 61, 8-Bromo-4-(2-chlorophenyl)-6-(3-methoxypropyl)-1,3-dioxo-1,2,3,6-tetrahydro-2,6-diaza-as-indacene-7-carbaldehyde], the melting point lay in the range of 206 to 207 °C.

Take `O=C1NC(=O)c2c1c(-c1ccccc1Cl)cc1c2c(Br)c(CO)n1CCCO` [Example 63, 8-Bromo-4-(2-chlorophenyl)-7-hydroxymethyl-6-(3-hydroxypropyl)-6H-2,6-diaza-as-indacene-1,3-dione]: the melting point was in the range of 203 to 205 °C.

`COCCCn1c(C=O)c(Cl)c2c3c(c(-c4ccccc4Cl)cc21)C(=O)NC3=O` [Example 64, 8-Chloro-4-(2-chlorophenyl)-6-(3-methoxypropyl)-1,3-dioxo-1,2,3,6-tetrahydro-2;6-diaza-as-indacene-7-carbaldehyde]: the melting point lay within 198 to 199 °C.

On to `O=C1NC(=O)c2c1c(-c1ccccc1Cl)cc1c2c(Cl)c(CO)n1CCCO` [Example 66, 8-Chloro-4-(2-chlorophenyl)-7-hydroxymethyl-6-(3-hydroxypropyl)-6H-2,6-diaza-as-indacene-1,3-dione], for which the melting point was in the range of 218 to 219 °C.

Turning to `COCCCn1c(CO)c(Cl)c2c3c(c(-c4ccccc4Cl)cc21)C(=O)NC3=O` [Example 67, 8-Chloro-4-(2-chlorophenyl)-7-hydroxymethyl-6-(3-methoxypropyl)-6H-2,6-diaza-as-indacene-1,3-dione], the melting point fell in the range of 214 to 215 °C.

On to `COCCOCCCn1c(C=O)c(Br)c2c3c(c(-c4ccccc4Cl)cc21)C(=O)NC3=O` [Example 69, 8-Bromo-4-(2-chlorophenyl)-6-[3-(2-methoxyethoxy)propyl]-1,3-dioxo-1,2,3,6-tetrahydro-2,6-diaza-as-indacene-7-carbaldehyde], for which the melting point was in the range of 168 to 169 °C.

`COCCOCCCn1c(CO)c(Br)c2c3c(c(-c4ccccc4Cl)cc21)C(=O)NC3=O` [Example 70] yielded a melting point of 149 to 150 °C.

The compound `Cn1c(C(=O)O)cc2c3c(c(-c4ccccc4Cl)cc21)C(=O)NC3=O` [Example 83, 4-(2-Chlorophenyl)-6-methyl-1,3-dioxo-1,2,3,6-tetrahydro-2,6-diaza-as-indacene-7-carboxylic acid] had a melting point of 301 to 302 °C.

On to `Cn1cc(Br)c2c3c(c(I)cc21)C(=O)NC3=O` [Example 132, 8-Bromo-4-iodo-6-methyl-6H-2,6-diaza-as-indacene-1,3-dione], for which the melting point is 242 °C (dec.).

On to `CSc1ccccc1-c1cc2c(ccn2C)c2c1C(=O)NC2=O` [Example 134 (sulfide), 6-Methyl-4-(2-methylsulfanylphenyl)-6H-2,6-diaza-as-indacene-1,3-dione], for which the melting point lay in the range of 272 to 274 °C.

Regarding `Cn1ccc2c3c(c(-c4ccccc4[S+](C)[O-])cc21)C(=O)NC3=O` (stereo not shown) [Example 134 (sulfoxide), 4-(2-Methanesulfinylphenyl)-6-methyl-6H-2,6-diaza-as-indacene-1,3-dione], the melting point was in the range of 311 to 315 °C.

`C[C@@H]1CN(CCCn2cc(Br)c3c4c(c(-c5ccccc5Cl)cc32)C(=O)NC4=O)C[C@H](C)N1` [Example 135, 8-Bromo-4-(2-chlorophenyl)-6-[3-(cis-3,5-dimethylpiperazin-1-yl)propyl]-6H-2,6-diaza-as-indacene-1,3-dione]: the melting point fell in the range of 236 to 239 °C.

For `O=C1NC(=O)c2c1c(-c1ccccc1Cl)cc1c2c(Br)cn1CCCN1CCCC1` [Example 137, 8-Bromo-4-(2-chlorophenyl)-6-(3-pyrrolidin-1-ylpropyl)-6H-2,6-diaza-as-indacene-1,3-dione], the melting point was in the range of 158 to 161 °C.
